Assay results: US12295937B2, “Psychoactive medicines and their use for treating psychiatric and neurological conditions and disorders” (Transcend Therapeutics, Inc., priority 2021, dated 2025)
pEC50: −log10 of the molar value. Marks after values point to notes of the source that are not given here.

Key:
NET = NET (Rattus norvegicus, UniProt Q63380); test: [3H]NE release from rat brain synaptosomes; format: biochemical; parameters: from tissue; synaptosomes for uptake and release; conditions: rat brain synaptosomes; read-out: Neurotransmitter release: EC50
Method: Test compounds and synaptosomes were prepared as described for uptake inhibition assays. Synaptosomes treated with [^3H]5-HT, [^3H]DA or [^3H]NE were loaded onto filter chambers containing GF/C filters and placed in a superfusion system. Oxygenated Krebs buffer was perfused through the chambers at a rate of 1.5 mL/minute at 35° C. using either an 8-channel or a 12-channel peristaltic pump. Trapped air bubbles were removed from the filters prior to collecting fractions to ensure an even flow over the synaptosomal bed. After a superfusion period of 45 minutes, 2 basal fractions were collected followed by 6 fractions following the addition of the test drug. […] Scintillation cocktail was added, and the filters counted to determine residual radioactivity. Drug-evoked release of neurotransmitter was calculated by subtracting the average of the two basal fractions (collected prior to the drug addition), from the four fractions collected in the presence of drug. The drug-evoked release was then expressed as a percentage of the basal release. Potassium-evoked release was calculated by subtracting the average of two fractions collected prior to the addition of high KCl buffer from that in the two fractions following addition of high KCl buffer. Potassium-stimulated release was calculated as a percentage of basal release. […]

[1] = system: gene expression in amygdala, frontal cortex, hippocampus; test: RNA-sequencing of rat brain areas after a single dose; format: in vivo; conditions: for Genes differentially regulated vs. vehicle: 10 mg/kg IP, 8 hours
[2] = Methylone case series, Cohorts 1 and 2 (CGI-S/CGI-I, safety); format: in vivo, human
Method: CGI-S scale was also evaluated in a subset of patients from Cohort 2 post-treatment. Cohort 2 was evaluated for any observed or reported safety events following a single dosing session. Clinical Global Improvement Scale • Clinical Global Impressions (CGI) scale includes 2 components: CGI-S (“severity”) and CGI-I (“improvement”).
Only sessions that included methylone dosing were counted as dosing sessions.
Single sessions occurred for 8 of the 28 cases with no booster in two of these cases. In the remainder of the cases, multiple sessions occurred, and booster doses were used in all or some of the remaining patients ([…]) with multiple booster doses used in some or all of the sessions in 15 patients.

Chain of NET (Q63380 1-617): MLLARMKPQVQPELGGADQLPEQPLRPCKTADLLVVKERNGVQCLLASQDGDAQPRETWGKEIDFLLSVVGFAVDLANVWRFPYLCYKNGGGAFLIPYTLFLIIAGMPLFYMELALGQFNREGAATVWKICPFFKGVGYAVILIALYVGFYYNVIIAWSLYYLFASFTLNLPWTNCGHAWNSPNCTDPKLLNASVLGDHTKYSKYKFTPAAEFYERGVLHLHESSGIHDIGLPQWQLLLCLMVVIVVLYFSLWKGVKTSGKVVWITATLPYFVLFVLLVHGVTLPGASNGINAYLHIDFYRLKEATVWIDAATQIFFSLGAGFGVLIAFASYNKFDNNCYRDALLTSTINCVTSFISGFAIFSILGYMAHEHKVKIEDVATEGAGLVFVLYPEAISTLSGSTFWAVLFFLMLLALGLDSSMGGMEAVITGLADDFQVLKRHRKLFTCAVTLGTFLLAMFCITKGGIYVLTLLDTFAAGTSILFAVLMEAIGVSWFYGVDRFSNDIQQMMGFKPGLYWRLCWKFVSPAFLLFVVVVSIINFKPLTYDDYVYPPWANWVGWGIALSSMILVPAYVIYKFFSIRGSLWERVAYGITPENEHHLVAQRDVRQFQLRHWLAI

Compound: CNC(C)C(=O)c1ccc2c(c1)OCO2 (stereo not shown) [Methylone, 3,4-methylenedioxy-N-methylcathinone]
- pEC50 (NET): 6.48
- Genes regulated by methylone that are also regulated by MDMA ([1]; amygdala): 87%
- Genes differentially regulated vs. vehicle ([1]; amygdala, >25% change, padj<0.1): 121 genes
- Genes regulated by both treatments ([1]; frontal cortex): 154 genes
- Genes significantly regulated ([1]; frontal cortex, 10 mg/kg IP (Example 27)): 480 genes
- Genes differentially regulated vs. vehicle ([1]; frontal cortex): 471 genes
- Genes differentially regulated vs. vehicle ([1]; hippocampus): 12 genes
- Adverse effects in healthy subjects ([2]; Cohort 1, 4 subjects, single session, total dose 790 or 870 mg): no adverse effects or after-effects were observed or reported
- Cases well tolerated with no safety events reported ([2]; Cohort 2, 25 of 28 cases): 89.3%
- Patients with initial improvement at the first methylone session ([2]; Cohort 2, 25 of 28 patients): ~90%
- Number of cases with CGI-I 2 ([2]; Cohort 2, N = 28): 13
- Number of cases with CGI-I 3 ([2]; Cohort 2, N = 28): 4
- Number of cases with CGI-I 4 ([2]; Cohort 2, N = 28): 0
- Number of cases with CGI-I 5 ([2]; Cohort 2, N = 28): 0
- Number of cases with CGI-I 6 ([2]; Cohort 2, N = 28): 0
- Number of cases with CGI-I 7 ([2]; Cohort 2, N = 28): 0
- Number of cases with CGI-I 1 (highest observed magnitude of improvement) ([2]; Cohort 2, N = 28 PTSD/MDD patients, oral): 11*
- Patients achieving CGI-I 1 or 2 ([2]; Cohort 2 overall): 86%
- Cases reporting a durable effect ([2]; MDD subset, 6 narratives with durability information): 5
- Patients achieving CGI-I 1 or 2 ([2]; MDD subset, 8/8 patients): 100%
- Patients achieving CGI-I 1 or 2 ([2]; PTSD subset, 16/20 patients): 80%
- Case narratives reporting a durable effect ([2]; PTSD subset, 16 narratives with durability information): 15
